Measured values taken from patent US20250339567A1, “COMPOUNDS WITH IMPROVED PHARMACOKINETICS FOR IMAGING AND THERAPY OF CANCER” (priority 2019, published 2025).
Starred links: 1 amine or outer side, 2 acyl side, 3 side chain; linkers in the order of their positions; H or OH if unused. Non-standard residues stand in square brackets, D forms with d. Residues, ends and D or L forms follow the SMILES beside them. *: point of attachment. DOTA = O=C(O)CN1CCN(CC(=O)O)CCN(CC(=O)*)CCN(CC(=O)O)CC1; Sta = CC(C)C[C@H](N)[C@@H](O)CC(=O)O; Bta = N[C@@H](Cc1csc2ccccc12)C(=O)O; X1 = O=C(CN1CCC(N[*:1])CC1)[*:2]

Legend:
GRPR = target: T1, GRPR (Homo sapiens, UniProt P30550); experiment: Determination of GRPR affinity (IC50), competition with [D-3-[125I]I-Tyr6]MJ9 on PC-3 cells; type: binding
T1 construct: endogenous in cells; host or cells: PC-3 cells
T1 sequence (P30550 whole entry): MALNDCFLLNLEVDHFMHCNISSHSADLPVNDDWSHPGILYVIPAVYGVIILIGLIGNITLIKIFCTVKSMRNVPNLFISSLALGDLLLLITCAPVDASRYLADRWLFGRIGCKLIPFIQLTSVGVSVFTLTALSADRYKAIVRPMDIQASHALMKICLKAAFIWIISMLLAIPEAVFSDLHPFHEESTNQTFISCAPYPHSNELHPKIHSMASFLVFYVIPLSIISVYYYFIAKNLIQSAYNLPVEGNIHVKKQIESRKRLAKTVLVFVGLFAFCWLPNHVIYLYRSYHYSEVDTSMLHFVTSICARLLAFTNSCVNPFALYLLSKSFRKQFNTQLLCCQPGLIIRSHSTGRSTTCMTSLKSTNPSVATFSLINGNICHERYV
Experimental: The reference ligand for IC50 studies ([D-3-[^125I]I-Tyr^6]MJ9) is prepared according to a previously published procedure. Briefly, 0.2 mg of [D-Tyr^6]MJ9 are dissolved in 20 μL Tracepur water and 280 μL TRIS buffer (25 mm TRIS HCl, 0.4 M NaCl, pH=7.9). After addition of the solution to a vial containing 150 μg Iodo-Gen® (1,3,4,6-Tetrachloro-3α,6α-diphenylglycouril, surface-bound), 5.0 μL (16 MBq) [^125I]Nal(74 TBq/mmol, 3.1 GBq/mL, 40 mM NaOH, Hartmann Analytic, Braunschweig, Germany) are added.
The GRPR-positive PC-3 cells are cultured in Dublecco modified Eagle medium/Nutrition Mixture F-12 with Glutamax-I (1:1) (Invitrigon), supplemented with 10% fetal calf serum and maintained at 37° C. in a humidified 5% CO2 atmosphere.
After removal of the culture medium, the cells are washed once with 500 μL of HBSS (Hank's balanced salt solution, Biochrom, Berlin, Germany, with addition of 1% bovine serum albumin (BSA)) and left in 200 μL HBSS (1% BSA) for 9 min at room temperature for equilibration. Next, 25 μL per well of solutions, containing either HBSS (1% BSA) as control or the respective ligand in increasing concentration (10^−10 M-10^−4 M in HBSS), are added with subsequent addition of 25 μL of [D-3-[^125I]I-Tyr^6]MJ9 (2.0 nM) in HBSS (1% BSA).
All experiments are performed in triplicate for each concentration. After 2 h incubation at room temperature, the experiment is terminated by removal of the medium and consecutive rinsing with 300 μL of HBSS. The media of both steps are combined in one fraction and represent the amount of free radiolabeled reference. Afterwards, the cells are lysed with 300 μL of 1 M NaOH for at least 15 min and united with the 300 μL NaOH of the following washing step. Quantification of bound and free radiolabeled reference is accomplished in a γ-counter.
IC50 determination for each ligand was repeated twice.

[1] = Plasma studies: metabolic stability in vitro in human plasma (radio RP-HPLC); type: in vitro ADME; settings: for remaining intact tracer in chromatogram: human, plasma, 2 h
Outline: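 Radiotracer incubated in human or murine plasma at 37° C. immediately after labeling, for 72±2 h or 6±0.5 h. Proteins precipitated with ice-cold EtOH and MeCN and centrifuged. Supernatant analysed by radio RP-HPLC.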

[2] = n-Octanol-PBS distribution coefficient, log D7.4; type: physicochemical; settings: n-octanol/PBS pH 7.4; for log D7.4 ± SD (n = 8): 177Lu-labeled ligand
Experimental: Approximately 1 MBq of the labeled tracer was dissolved in 1 mL of a 1:1 mixture (v/v) of phosphate buffered saline (PBS, pH=7.4) and n-octanol in an Eppendorf tube. After vigorous mixing of the suspension for 3 min at room temperature, the vial was centrifuged at 9000 rpm for 5 min (Biofuge 15, Heraus Sepatech, Osterode, Germany) and 200 μL aliquots of both layers were measured in a γ-counter. The experiment was repeated at least four times.

PC-3 cells = experiment: Internalization into PC-3 cells; type: cell-based; settings: c = 1 nM, 1 h, 37° C., corrected for non-specific binding (10^-3 M [natLu]RM2)
Experimental: For internalization studies, PC-3 cells are harvested 24±2 h before the experiment and seeded in 24-well plates (1.5×10^5 cells/well, 1 mL). Subsequent to the removal of the culture medium, the cells are washed once with 500 μL DMEM/F-12 (5% BSA) and left to equilibrate at 37° C. for at least 15 min in 200 μL DMEM/F-12 (5% BSA). […] Next, 25 μL of the ^125I/^177Lu-labeled GRPR ligand (10 nm) is added and the cells are incubated at 37° C. for 60 min.
The experiment is terminated by placing the 24-well plate on ice for 1 min and consecutive removal of the medium. Each well is rinsed with 300 μL ice-cold PBS and the fractions from these first two steps are combined, representing the amount of free radiolabeled reference. Removal of surface bound activity is accomplished by incubation of the cells with 300 μL of ice-cold Acid Wash solution (0.02 M NaOAc, pH=5.0) for 10 min at room temperature and rinsed again with 300 μL of ice-cold PBS. The internalized activity is determined by incubation of the cells in […] NaOH (1 M) and the combination with the fraction of a subsequent washing step with 300 μL NaOH (1 M).
Each experiment (control and blockade) is performed sixfold. Free, surface bound and internalized activity is quantified in a γ-counter. Data is corrected for non-specific internalization.

[3] = tested on: PC-3 tumor-bearing CB17-SCID mice; experiment: Biodistribution in PC-3 tumor-bearing CB17-SCID mice; type: in vivo; settings: mouse, in vivo
Experimental: All animal experiments were conducted in accordance with general animal welfare regulations in Germany (German animal protection act, as amended on 18 May 2018, Art. 141 G v. 29.3.2017 | 626, approval no. ROB-55.2-2532.Vet_02-18-109) and the institutional guidelines for the care and use of animals. To establish tumor xenografts, PC-3 cells (5×10^6 cells per 200 μL) were suspended in a 1:1 mixture (v/v) of Dulbecco's modified eagle's medium/Ham's F-12 (DMEM/F-12) with Glutamax-I (1:1) and Cultrex® Basement Membrane Matrix Type 3 (Trevigen Inc., Gaithersburg, MD, USA) and inoculated subcutaneously onto the right shoulder of 6-10 weeks old female CB17-SCID mice (Charles River Laboratories International Inc., Sulzfeld, Germany). Mice were used for experiments when tumor volume was 125-500 mm^3 (2-3 weeks after inoculation).
Approximately 1-5 MBq ([…]) of the radiolabeled GRPR antagonists were injected into the tail vein of PC-3 tumor-bearing mice and sacrificed at 1, 4 or 24 h p.i. (n=4). Selected organs were removed, weighted and measured in a γ-counter (Perkin Elmer, Waltham, MA, USA).

[4] = IC50 [nM] ± SD (n = 3), ^177Lu-labeled, Table 1C, GRPR affinity

| IC50 (GRPR; [4]) [nM] | IC50 (GRPR; IC50 ± SD (n = 3), Table 3, [D-3-[125I]I-Tyr6]MJ9 (c = 0.2 nM), 2 h, r.t., HBSS + 1% BSA) [nM] | Amount of intact tracer after incubation in human plasma for 72 ± 2 h (n = 2) [1] | metabolite, first-eluting peak in chromatogram [1] [%] | metabolite, second peak in chromatogram [1] [%] | remaining intact tracer in chromatogram [1] [%] | log D7.4 ± SD (n = 8) [2] | IC50 (GRPR; IC50 [nM] ± SD (n = 3), Table 5, non-labeled N4 ligands, [D-3-[125I]I-Tyr6]MJ9 (c = 0.2 nM), 2 h, r.t.) [nM] | log D7.4 (n = 6), ^99mTc-labeled ([2]; 99mTc-labeled) | tumor-to-background ratios [3] | SMILES | Specific internalization (mean ± SD, n = 6) (PC-3 cells) |
| --- | --- | --- | --- | --- | --- | --- | --- | --- | --- | --- | --- |
| 4.6 ± 0.2 | 4.63 ± 0.23 | 18.3 ± 2.3 | 79 | 8 | 12 | −1.81 ± 0.02 |  |  |  | CC(C)C[C@H](NC(=O)C[C@H](O)[C@H](CC(C)C)NC(=O)[C@H](Cc1c[nH]cn1)NC(=O)CNC(=O)[C@@H](NC(=O)[C@H](C)NC(=O)[C@H](Cc1csc2ccccc12)NC(=O)[C@H](CCC(N)=O)NC(=O)[C@@H](Cc1ccccc1)NC(=O)CN1CCC(NC(=O)CN2CCN(CC(=O)O)CCN(CC(=O)O)CCN(CC(=O)O)CC2)CC1)C(C)C)C(N)=O [DOTA-[Bta^8]MJ9] ({DOTA}-[X1][dF]Q[Bta]AVGH[Sta]L-NH2) | 2.26 ± 0.18 % of the used activity |
| 19.7 ± 1.6 |  | 40.1 ± 1.4 | 30 | 8 | 56 | −2.25 ± 0.06 |  |  |  | CC(C)C[C@H](NC(=O)C[C@H](O)[C@H](CC(C)C)NC(=O)[C@H](Cc1c[nH]cn1)NC(=O)CNC(=O)[C@@H](NC(=O)[C@H](C)NC(=O)[C@H](Cc1c[nH]c2ccccc12)NC(=O)[C@H](CCO)NC(=O)[C@@H](Cc1ccccc1)NC(=O)CN1CCC(NC(=O)CN2CCN(CC(=O)O)CCN(CC(=O)O)CCN(CC(=O)O)CC2)CC1)C(C)C)C(N)=O [DOTA-[Hse^7]MJ9] | 1.40 ± 0.16 % of the used activity |
|  |  |  |  |  |  |  | 6.97 ± 1.84 | −1.26 ± 0.02 | highest | CC(C)C[C@H](NC(=O)C[C@H](O)[C@H](CC(C)C)NC(=O)[C@H](Cc1c[nH]cn1)NC(=O)CNC(=O)[C@@H](NC(=O)[C@H](C)NC(=O)[C@H](Cc1c[nH]c2ccccc12)NC(=O)[C@H](CCO)NC(=O)[C@@H](Cc1ccccc1)NC(=O)CN1CCC(NC(=O)C(CNCCN)CNCCN)CC1)C(C)C)C(N)=O [N4-[Hse^7]MJ9] |  |
